Entries after “also recorded” stand apart in the source; their conditions may differ.
Experiments:
[1] = test system: motor neurons co-cultured with SOD1^G93A astrocytes (Na/K ATPase); test: co-culture of SOD1^G93A or control astrocytes with primary motor neurons, pharmacological inhibition of Na/K ATPase; conditions: for impairment of dendrite morphology in motor neurons induced by SOD1^G93A astrocytes / motor neuron cell death induced by SOD1^G93A astrocytes: final concentration of 1 μm; for motor neuron cell death induced by SOD1^G93A astrocytes: vehicle 56%, 7 days of co-culture
Method: Monolayer astrocytes culture from P2 SOD1^G93A and non-transgenic littermate mice were prepared as described in Di Giorgio et al., Nat. Neurosci. 10:608-614 (2007) and Nagai et al., Nat. Neurosci. 10:615-622 (2007), each of which is incorporated by reference. Astrocytes were plated in DMEM (GIBCO) supplemented with 10% FBS containing 100 U/ml penicillin and […] for two weeks or until confluent. Once confluent, cells were replated onto glass cover slips precoated with poly-D-lysine at a density of 40,000 cells/well in a 24-well dish. For RNAi experiment astrocyte cultures were transfected with RNAi or control U6 plasmid using Lipofectamine 2000 (Invitrogen) according to the guidelines of the manufacturer four days prior to co-culturing with motor neurons.
Spinal motor neuronal cultures from E12.5 wild-type rodents were performed as described in Gingras et al., J. Neurosci. Methods 163:11-118 (2007), which is hereby incorporated by reference. Cultures were plated astrocyte monolayers at 12,000 cells/well in Neurobasal-A medium (GIBCO) supplemented with 2% B-27 serum free supplement and 0.5 mM glutamine; DMEM/F12 (3:1, v/v ratio) with a cocktail of trophic factors composed of 0.5 ng/ml glia-derived neurotrophic factor, 1 ng/ml brain-derived neurotrophic factor and 10 ng/ml ciliary neurotrophic factor (trophic factor cocktail, R&D Systems).
Motor neurons were fixed after 7 days of co-cultures with astrocytes and immunostained with Islet1, MAP2 and Hoechst 33258 and subjected to cell survival. Approximately 150 cells were counted per cover slip. For pharmacological inhibition of Na/K ATPase in co-cultures. […] For motor neuron morphology images were taken using a NIKON eclipse TE2000 epifluorescence microscope using a digital CCD camera (DIAGNOSTIC instruments) and imported into the SPOT imaging software. Approximately 40 cells were analyzed per cover slip.

SOD1^G93A mice = assay type: in vivo
Method: Transgenic mice overexpressing mutant G93A human superoxide dismutase 1 (Jackson Laboratory stock#002726). α2-Na/K ATPase null heterozygous (provided by Dr. Jerry B. Lingrel) and C57BL6 (Charles River) were used. All analysis was done with littermate mice derived from SOD1^G93A heterozygous mating with non-transgenic wild type and heterozygous α2-Na/K ATPase mice. All animal experiments were conducted under the institutional guidelines and were approved by the Institutional Animal Care and Use Committee (IACUC).
All morphological studies were performed as described in Chandra et al., Cell 123:383-396 (2005), which is incorporated by reference. Briefly, mice were deeply anesthetized and perfused with 4% paraformaldehyde in phosphate buffer. Spinal cords were post-fixed in the same fixative for 4 hours and processed for cryoprotective embedding. Immunohistochemistry analyses were carried out on 30 um cryosections from spinal cords with the indicated antibodies. […] For lentiviral mediated RNAi a minimum of 20 sections were quantified for surviving motor neurons in the injected and non-injected ventral horns from Nissl stained and immunofluorescence labeled sections.

| Substance | non-cell autonomous cell death and dendrite abnormalities induced by SOD1^G93A astrocytes (FIG. 5) [1] | survival or morphology of motor neurons co-cultured with control (non-transgenic) astrocytes [1] | impairment of dendrite morphology in motor neurons induced by SOD1^G93A astrocytes [1] | motor neuron cell death induced by SOD1^G93A astrocytes [1] | motor neurons per ventral horn section (SOD1^G93A mice; 1 mg/kg intraperitoneal on a 48-hour cycle from 80 days, toward end stage (130±5 days), vehicle 4.66±0.40) | motor neuron survival / degeneration in SOD1^G93A mice (SOD1^G93A mice; intraperitoneal digoxin compared to vehicle) |
| --- | --- | --- | --- | --- | --- | --- |
| ouabain | neuroprotective | did not alter survival or morphology of motor neurons; also recorded: did not alter motor neuron survival or morphology | prevented impairment of dendrite morphology | 22% |  |  |
| digoxin | neuroprotective | did not alter survival or morphology of motor neurons; also recorded: did not alter motor neuron survival or morphology | prevented impairment of dendrite morphology | 19% | 7.20±0.21 | protected motor neurons from degeneration; also recorded: significantly increases the number of motor neurons |

Reference: patent US20170007633A1, “TREATMENT OF NEURODEGENERATIVE AND NEURODEVELOPMENTAL DISEASES BY INHIBITION OF THE a2-Na/K ATPase/a-ADDUCIN COMPLEX” (PRESIDENT AND FELLOWS OF HARVARD COLLEGE, priority 2014, published 2017)
